Assay results reported in patent US8722687B2, “Imidazo [1,2-A]pyridine derivatives as FGFR kinase inhibitors for use in therapy” (Astex Therapeutics Ltd, priority 2009, dated 2014).

Tests used:
Type in all cases: cell-based, murine
Ba/F3-TEL-FGFR3 cells = target: T1, Ba/F3-TEL-FGFR3 cells (Homo sapiens, UniProt P22607); assay: Ba/F3-TEL-FGFR3 cell proliferation assay (Alamar Blue); conditions: 72 hours; read-out: BaF3-TEL-FGFR3 prolif
T1 construct: fused on or other part: TEL (ETV6) N-terminal oligomerising part fused to the FGFR3 kinase part; P41212 (Transcription factor ETV6)
Procedure: (§1) Ba/F3-TEL-FGFR3 & Ba/F3 (WT) Cell Proliferation Assays
(§2) Stably transfected Ba/F3-TEL-FGFR3 cells were plated out into black 96-well tissue culture plates with clear bottoms in RPMI medium containing 10% FBS and 0.25 mg/ml G418 at a density of 5×10^3 cells/well (200 μl per well). The parental wild-type Ba/F3 cells (DSMZ no.: ACC 300) were plated out into black 96-well tissue culture plates with clear bottoms in RPMI medium containing 10% FBS and 2 ng/ml mouse IL-3 (R&D Systems) at a density of 2.5×10^3 cells/well (200 μl per well). Plates were placed in an incubator overnight before adding the compounds the following day. Dilutions of compounds were made in DMSO starting at 10 mM and were diluted into the wells to give a final DMSO concentration of 0.1% in assay. Compounds were left on the cells for 72 hours before the plates were removed from the incubator and 20 μl of Alamar Blue™ (Biosource) was added to each well. Plates were placed in the incubator for 4-6 hours before reading plates at 535 nm (excitation)/590 nm (emission) on a Fusion plate reader (Packard). Where inhibition is high an IC50 can be determined.

[1] = tested on: parental wild-type Ba/F3 cells; assay: Ba/F3 (WT) cell proliferation assay (Alamar Blue); conditions: read-out: BaF3 WT prolif; for IC50: BaF3, 72 hours, with mouse IL-3
Procedure: as §1, §2

Ba/F3-Flt3 cells [2] = assay: Ba/F3-Flt3 assay (Alamar Blue); conditions: Mus musculus, 24 h; with 10 ng/ml murine IL3; read-out: Ba/F3-flt3 + IL3 pIC50 (converted)
Excerpt: (§3) Ba/F3, a murine interleukin-3 dependent pro-B cell line is increasingly popular as a model system for assessing both the potency and downstream signaling of kinase oncogenes, and the ability of small-molecule kinase inhibitors to block kinase activity. Facilitated by their growth properties. Ba/F3 cells have recently been adapted to high throughput assay formats for compound profiling. Further, several published approaches show promise in predicting resistance to small-molecule kinase inhibitors elicited by point mutations interfering with inhibitor binding (Ba/F3 cells and their use in kinase drug discovery; Markus Warmuth, Sungjoon Kim, Xiang-ju Gu, Gang Xia and Francisco Adria'n; Curr Opin Oncol 19:55-60).
(§4) Ba/F3-Flt3 cells (cultured in phenol red free RPMI-1640, 10% A FCS and 50 μg/ml Gentamycin at 37° C. and 5% 002) were plated at a density of 10000 cells in a total volume of 180 μl medium in a black TC-treated sterile 96-well plate (Corning). After 24 hours, drugs in different dilutions were added to a final volume of 200 μl and at a final DMSO concentration of 0.2% prior to incubation at 37° C., and 5% CO2.
(§5) After 24 h, to each well 40 μl Alamar Blue solution (Aldrich) was added and the cells were further incubated for 4 hours at 37° C. Fluorescence (ex. 544, em. 590 nm) was measured using a fluorescence reader (Labsystems) and IC50's were calculated.
(§6) In the condition containing IL3, 10 ng/ml of murine IL3 (PeproTech) was added during compound incubation.

Ba/F3-Flt3 cells [3] = target: T2, Ba/F3-Flt3 cells (Homo sapiens, UniProt P36888, cells depend on it, form not given); assay: Ba/F3-Flt3 assay (Alamar Blue); conditions: without IL3
T2 construct: Ba/F3-flt3 − IL3 pIC50; other: without IL3
T2 sequence (P36888 1-993): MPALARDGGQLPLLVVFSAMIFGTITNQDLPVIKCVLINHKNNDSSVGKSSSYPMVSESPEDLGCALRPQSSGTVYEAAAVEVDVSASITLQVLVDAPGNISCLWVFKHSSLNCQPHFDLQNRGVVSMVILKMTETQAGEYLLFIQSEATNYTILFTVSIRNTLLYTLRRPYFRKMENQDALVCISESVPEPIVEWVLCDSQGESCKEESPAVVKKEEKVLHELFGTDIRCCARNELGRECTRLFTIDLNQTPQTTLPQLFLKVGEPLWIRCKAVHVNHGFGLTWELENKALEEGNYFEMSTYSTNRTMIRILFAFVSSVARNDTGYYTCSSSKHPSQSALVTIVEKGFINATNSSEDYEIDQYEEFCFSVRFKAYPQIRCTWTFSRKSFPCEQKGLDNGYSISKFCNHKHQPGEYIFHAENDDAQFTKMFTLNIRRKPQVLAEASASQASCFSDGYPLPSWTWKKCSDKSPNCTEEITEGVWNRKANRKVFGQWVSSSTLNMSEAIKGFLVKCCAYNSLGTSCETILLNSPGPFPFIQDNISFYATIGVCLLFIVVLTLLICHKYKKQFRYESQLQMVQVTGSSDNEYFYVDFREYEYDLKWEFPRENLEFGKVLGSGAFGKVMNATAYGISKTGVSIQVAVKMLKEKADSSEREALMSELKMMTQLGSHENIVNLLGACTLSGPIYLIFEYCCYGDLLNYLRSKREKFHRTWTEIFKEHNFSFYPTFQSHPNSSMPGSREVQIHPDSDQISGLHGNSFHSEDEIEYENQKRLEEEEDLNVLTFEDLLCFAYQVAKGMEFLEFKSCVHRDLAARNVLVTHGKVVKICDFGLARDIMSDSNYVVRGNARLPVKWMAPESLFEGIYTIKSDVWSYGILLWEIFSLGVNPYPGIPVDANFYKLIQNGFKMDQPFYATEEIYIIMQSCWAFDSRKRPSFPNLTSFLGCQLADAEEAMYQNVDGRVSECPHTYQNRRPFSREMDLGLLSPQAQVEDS
Excerpt: as §3, §4, §5, §6

T1 sequence (P22607 whole entry, change not shown, the tested form may be a part): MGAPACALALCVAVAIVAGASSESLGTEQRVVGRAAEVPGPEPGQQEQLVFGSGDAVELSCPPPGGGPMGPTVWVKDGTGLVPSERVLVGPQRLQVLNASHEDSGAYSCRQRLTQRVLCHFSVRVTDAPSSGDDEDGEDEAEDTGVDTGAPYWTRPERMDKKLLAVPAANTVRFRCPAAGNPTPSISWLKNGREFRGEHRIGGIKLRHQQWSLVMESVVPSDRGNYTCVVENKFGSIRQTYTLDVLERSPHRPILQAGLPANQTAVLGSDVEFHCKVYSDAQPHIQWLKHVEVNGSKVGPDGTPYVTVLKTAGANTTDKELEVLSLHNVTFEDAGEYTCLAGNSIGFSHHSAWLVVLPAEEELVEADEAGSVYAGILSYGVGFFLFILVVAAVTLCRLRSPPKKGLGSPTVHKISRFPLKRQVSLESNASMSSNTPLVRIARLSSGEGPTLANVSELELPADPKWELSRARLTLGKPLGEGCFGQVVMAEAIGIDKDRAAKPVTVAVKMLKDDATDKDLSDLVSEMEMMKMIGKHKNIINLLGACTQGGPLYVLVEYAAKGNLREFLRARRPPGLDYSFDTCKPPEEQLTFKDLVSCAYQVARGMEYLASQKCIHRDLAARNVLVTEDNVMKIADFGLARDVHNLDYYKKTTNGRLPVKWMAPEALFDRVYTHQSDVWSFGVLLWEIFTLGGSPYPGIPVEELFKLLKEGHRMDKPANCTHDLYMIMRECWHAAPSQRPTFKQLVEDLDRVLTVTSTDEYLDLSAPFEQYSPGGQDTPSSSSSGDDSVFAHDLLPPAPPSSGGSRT

SMILES | GI50 (Ba/F3-TEL-FGFR3 cells) [nM] | IC50 [1] [nM] | IC50 (Ba/F3-Flt3 cells [2]) [nM] | Ba/F3-flt3 − IL3 pIC50 (Ba/F3-Flt3 cells [3]) | inhibition at 10 µM ([1]; Mus musculus, BaF3, 72 h) [%] | inhibition at 3 µM ([1]; Mus musculus, BaF3, 72 h, % at 3.00 μM) [%]
CC(C)Oc1cc(NC(=O)NCC(F)(F)F)cc(-c2cnc3cc(C(=O)C4CC4)ccn23)c1 [Compound F-6, 1-[3-(7-Cyclopropanecarbonyl-imidazo[1,2-a]pyridin-3-yl)-5-isopropoxy-phenyl]-3-(2,2,2-trifluoro-ethyl)-urea] | 31 | 5600 | > 10000 | <5 |  | 
CC(C)Oc1cc(NC(=O)NCC(F)(F)F)cc(-c2cnc3cc(-c4ncc(F)c(N)n4)ccn23)c1 [Compound F-1, 1-{3-[7-(4-Amino-5-fluoro-pyrimidin-2-yl)-imidazo[1,2-a]pyridin-3-yl]-5-isopropoxy-phenyl}-3-(2,2,2-trifluoro-ethyl)-urea] | 120 |  | > 10000 | <5 | 42 | 
CC(C)Oc1cc(NC(=O)NCC(F)(F)F)cc(-c2cnc3cc(-c4nccc(C(C)(C)CO)n4)ccn23)c1 [Compound F-27, 1-(3-{7-[4-(2-Hydroxy-1,1-dimethylethyl)-pyrimidin-2-yl]-imidazo[1,2-a]pyridin-3-yl}-5-isopropoxy-phenyl)-3-(2,2,2-trifluoro-ethyl)-urea] | 1580 |  | > 10000 | <5 |  | 50
Cc1nnc(-c2ccn3c(-c4cc(NC(=O)NCC(F)(F)F)cc(OC(C)C)c4)cnc3c2)o1 [Compound F-5, 1-{3-Isopropoxy-5-[7-(5-methyl-[1,3,4]oxadiazol-2-yl)-imidazo[1,2-a]pyridin-3-yl]-phenyl}-3-(2,2,2-trifluoro-ethyl)-urea] | 220 |  | > 10000 | <5 | 59 | 
Cc1nc(-c2ccn3c(-c4cc(NC(=O)NCC(F)(F)F)cc(OC(C)C)c4)cnc3c2)ccc1F [Compound F-3, 1-{3-[7-(5-Fluoro-6-methyl-pyridin-2-yl)-imidazo[1,2-a]pyridin-3-yl]-5-isopropoxy-phenyl}-3-(2,2,2-trifluoro-ethyl)-urea] | 330 | ~8000 | > 10000 | <5 |  | 
CCOc1cc(NC(=O)NCC(F)(F)F)cc(-c2cnc3cc(-c4ccnc(C(F)(F)F)n4)ccn23)c1 [Compound F-16, 1-{3-Ethoxy-5-[7-(2-trifluoromethyl-pyrimidin-4-yl)-imidazo[1,2-a]pyridin-3-yl]-phenyl}-3-(2,2,2-trifluoro-ethyl)-urea] | 470 |  | > 10000 | <5 | 32 | 
CCOc1cc(NC(=O)NCC(F)(F)F)cc(-c2cnc3cc(-c4nnc(C)o4)ccn23)c1 [Compound F-15, 1-{3-Ethoxy-5-[7-(5-methyl-[1,3,4]oxadiazol-2-yl)-imidazo[1,2-a]pyridin-3-yl]-phenyl}-3-(2,2,2-trifluoro-ethyl)-urea] | 370 |  | > 10000 | <5 | 23 | 
